Entries after “also recorded” stand apart in the source; their conditions may differ.
Experiments:
[1] = test system: green, immature tomato fruits; assay: Tomato fruit ripening after inhibitor treatment; assay type: in vivo, tomato (Solanum pimpinellifolium)
From the text: To further investigate the potential of NOP-1 for agricultural applications, we tested the effect of the NOP-1 peptide on tomato fruit ripening in comparison to other known inhibitors of ethylene responses. To this end we tested […] (MCP) and aminoethoxyvinylglycine (AVG). MCP is a known inhibitor of ethylene signaling blocking ethylene binding at the receptor proteins, whereas AVG blocks ethylene production in the plant by competitive inhibition of ACC synthases. To monitor inhibition of the fruit ripening process, we treated green, immature tomato fruits with 200 μM NOP-1, MCP or AVG, respectively and documented the fruit ripening process for 20 days. Figure 3 compares the effect of the different inhibitor treatments on tomato fruits to controls lacking the inhibitory treatment that contain either buffer alone or a random sequence control peptide (ROP-1). […] The bioassays underline the high inhibitory potential of NOP-1 on the ripening process compared to the well-known and efficient inhibitors of ethylene responses.
Inhibitor-treatment of tomato fruits
(§1) Aminoethoxyvinyl glycine (AVG) was purchased from Sigma-Aldrich, St Louis, MO (purity ~95%). SmartFresh^SM (AgroFresh, Spring House, PA) was used as sugar-based powder formulation of 1-MCP. Concentration of 1-MCP was calculated according to the percentage of active ingredient (0.14%) and release from the SmartFresh^SM powder. For comparison concentration of all inhibitors are expressed in terms of molarity. For treatment of tomato fruits with NOP-1, AVG and MCP, inhibitors were dissolved in the FRET buffer described in the previous section to a final concentration of 200 μM. Green tomato fruits (Solanum pimpinellifolium) from the same estimated developmental stage were harvested from the panicle and water-cleaned. 300 μL of the inhibitor solution was applied onto the tomato surface with a brush and the fruits were air-dried for 30 min. As an alternative application, tomato fruits were plunged into 2 mL of the inhibitor solution and incubated for 30 min in this solution or 200 μL of the peptide-containing solution were carefully injected into the tomato tissue by a hypodermic syringe. Three individual tomato fruits were treated for the different applications of the peptide in order to document the ripening process. After inhibitor-treatment tomato fruits were transferred to a vial closed with aluminum foil and stored in the dark at room temperature. Maturation process was documented every second day for at least 20 days. For measurement of ethylene production, green tomato fruits were treated as described above.

[2] = test system: climacteric tomato fruits; assay: Real-time monitoring of ethylene production of tomato fruits (laser-based ethylene detector); assay type: in vivo, tomato (Solanum pimpinellifolium)
Protocol: as §1
Real-time monitoring of ethylene production
Ethylene production was continuously monitored over 19 days with a laser-based ethylene detector (ETD-300; Sensor Sense BV; Nijmegen, Netherlands). A detailed description of the system has been given elsewhere. Briefly, the detector consists of a laser emitting radiation in the 10 micrometers infrared wavelength region and a photoacoustic cell, in which ethylene is detected due to its strong fingerprint-like absorption pattern in this region. Inside the photoacoustic cell ethylene can absorb the laser radiation and converts it into kinetic energy by energy exchange processes, resulting in local heating of the sample. By switching on and off the light, rapid heating/cooling can occur, giving rise to a periodical pressure change, i.e. sound wave. The amplitude of these waves is directly proportional to the concentration of ethylene in the photoacoustic cell and can be detected very accurately with sensitive miniature microphones.
Six tomato fruits for each treatment, including an untreated group (buffer control, CT) were placed into glass cuvettes (150 ml volume) and connected to a gas flow through system (VC-6, Sensor Sense BV; Nijmegen, Netherlands) under a continuous flow routine as described in Ref. [58]. The […] ensured that the samples were continuously flushed with air at a constant flow of 2 l/h and allowed automated sampling of ethylene from the headspace of six cuvettes. Each cuvette was alternatively connected to the ETD-300 and ethylene emitted in the headspace was measured for 12 min. […] The ethylene production was related to the emission rate by multiplying the measured value with the flow rate (expressed in nanoliters per hour, nl/h) and further normalized with the fresh weight (expressed in grams, gFW); the end result being nanoliters per hour per gram of fresh weight, nl/h∙gFW.

NOP-1 stability by LC/MS = assay type: physicochemical; details: NOP-1 500 µg in 100 µl PBS pH 6.7, 0, 5, 10 and 15 days, room temperature; Supelcosil C18, 215 nm; identity by mass spectrometry
Protocol: Figure S4: Analysis of NOP-1 stability by liquid chromatography (LC).
Lyophilized NOP-1 (500 µg) was dissolved in 100 µl PBS pH 6.7, incubated for 0 days, 5 days, 10 days and 15 days at room temperatures and then applied to a Supelcosil C18 column (4.6x150 mm). The column was washed with 15 ml H2O with 0.1% TFA (buffer A).
Elution was performed with a linear gradient to 100% buffer B (100% acetonitrile with 0.1% TFA) over 30 min at a flow rate of 1 ml min-1. Detection was set to 215 nm. Identity of the peptide was confirmed by mass spectrometry. […]

Arabidopsis EIN2-ETR1 = details: proteins from Arabidopsis, cited from earlier work
From the text: Studies on the related tomato proteins in this work emphasize that NOP-1 follows the same inhibitory mechanism also in other plants.

## CC(C)C[C@H](NC(=O)[C@H](CCCNC(=N)N)NC(=O)[C@H](CCCNC(=N)N)NC(=O)[C@H](CCCCN)NC(=O)[C@H](Cc1ccc(O)cc1)NC(=O)[C@H](CCCNC(=N)N)NC(=O)[C@H](CCCCN)NC(=O)[C@@H](N)CC(C)C)C(N)=O [NOP-1, LKRYKRRL-NH2]
[1]; 200 μM, surface-treated, incubated or injected, versus untreated fruits
  delay in fruit ripening (Fig. 3c): at least 5 days
[1]; 200 μM, all tested inhibitors and all applications of NOP-1 (injection, incubation, surface application), documented for 20 days, three fruits per application
  delay in maturation of tomato fruits: 10 to 15 days
[1]; 200 μM, surface application compared with incubation and injection
  delay in maturation by application form (in words): Delay in maturation process is most evident for fruit surface application
[1]; compared with buffer or untreated control, inhibitors at 200 μM
  effect on tomato fruit ripening (in words): delays ripening similar to known inhibitors of ethylene perception (MCP) and ethylene biosynthesis (AVG)
[1]; inferred from ripening delay after surface application, 200 μM
  penetration of fruit surface / uptake (in words): can easily penetrate the surface tissue of the tomatoes and is taken up by the fruits; also recorded: seems to penetrate the exocarp and is taken up by the fruits
[1]; injection into the fruits, initial experiments
  delay in ripening by injection (in words): less pronounced delay in ripening
[1]; surface-treated, 200 μM, versus untreated control fruits
  delay in fruit ripening (Fig. 3a): at least 15 days
[2]; 200 μM NOP-1, injected or incubated
  time of ethylene production peak, injected or incubated fruits: 6 to 8 days
[2]; 200 μM NOP-1, injected, attributed to wounding
  initial ethylene burst in injected fruits: ethylene burst detected in the injected fruits; also recorded: initial burst in ethylene production within the first hours
[2]; 200 μM NOP-1, surface-treated, same time as control fruits
  time of ethylene production peak, surface-treated fruits: ~12 days
[2]; 200 μM NOP-1, surface treatment, injection, incubation, versus untreated fruits and buffer control, six fruits per treatment, 21 °C, dark
  ethylene production compared with controls (in words): do not significantly differ from controls; also recorded: No reduction in ethylene production is evident; also recorded: modest increase rather than an inhibition of ethylene production
[2]; fruits treated with 200 μM NOP-1, average of surface-application, incubation and injection, injected fruits corrected for initial ethylene burst, six fruits per treatment, 21 °C, dark
  Ethylene production over 18 days (total ethylene release, average of applications): 616 +/- 46 nl/gFW
NOP-1 stability by LC/MS
  stability of the peptide: stable for several days at room temperature under normal conditions
Arabidopsis EIN2-ETR1
  effect on EIN2-ETR1 interaction in Arabidopsis: reduced or abolished EIN2-ETR1 interaction; also recorded: able to disrupt interaction of EIN2 and ETR1
Arabidopsis EIN2-ETR1; read-out: IC50 for inhibition of EIN2-ETR1 interaction in Arabidopsis
  IC50: 93 µM

Reference: PMC4967898, “Peptides interfering with protein-protein interactions in the ethylene signaling pathway delay tomato fruit ripening” (Scientific Reports, 2016)
